Laboratory results as given in patent US20240025862A1, “SUBSTITUTED N-PHENYLURACILS AND SALTS THEREOF, AND USE THEREOF AS HERBICIDAL ACTIVE SUBSTANCES” (Bayer Aktiengesellschaft, priority 2020, published 2024).

What was measured:
Assay type in all cases: in vivo
Oryza sativa (ORYSA) = experiment: Post-emergence crop plant compatibility, greenhouse pot test (also comparative test C); details: for Post-emergence action against ORYSA (crop plant compatibility): vs untreated controls
In short: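 Rice and other crops sprayed post-emergence at one-leaf stage (2–3 weeks after sowing) with WP or EC formulations plus 0.5% additive at 600 l/ha water. Visual rating about 3 weeks later versus untreated controls (100% = dead, 0% = like control); suffixes a–c denote different doses.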

[1] = tested on: Polygonum convolvulus (POLCO); experiment: Post-emergence herbicidal action, greenhouse pot test
In short: (§1)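 Greenhouse-grown weeds in sandy loam were sprayed post-emergence at the one-leaf stage, 2–3 weeks after sowing. Compounds were formulated as WP or EC in water with 0.5% additive at 600 l/ha, at rates of 20 g/ha or less. Visual rating after about 3 weeks used a scale from 0% (like untreated control) to 100% (plants dead).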

Lolium rigidum (LOLRI) = experiment: as above; details: dosage 20 g/ha
In short: as §1

Avena fatua (AVEFA) = experiment: as above; details: 20 g/ha, rated visually after about 3 weeks vs untreated controls, 100% = plants have died
In short: as §1

[2] = tested on: Amaranthus retroflexus (AMARE); experiment: as above; details: rated visually after about 3 weeks vs untreated controls, 100% = plants have died
In short: as §1

Viola tricolor (VIOTR) = experiment: as above
In short: as §1

[3] = tested on: Pharbitis purpurea (PHBPU); experiment: as above
In short: as §1

Veronica persica (VERPE) = experiment: as above
In short: as §1

[4] = tested on: Abutilon theophrasti (ABUTH); experiment: as above; details: rated visually after about 3 weeks vs untreated controls, 100% = plants have died
In short: as §1

[5] = tested on: Triticum aestivum (TRZAS); experiment: Post-emergence crop plant compatibility, greenhouse pot test; details: vs untreated controls
In short: (§2)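 Greenhouse-grown crop plants sprayed post-emergence at the one-leaf stage with WP or EC formulations plus 0.5% additive, at 600 l/ha water. Damage rated visually after about 3 weeks versus untreated controls (0% = like control, 100% = dead); suffixes a/b/c denote different dosages.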

Glycine max (GLXMA) = experiment: as above; details: 1.25 g/ha
In short: as §2

Zea mays (ZEAMX) = experiment: as above; details: vs untreated controls
In short: as §2

[6] = tested on: Echinochloa crus-galli (ECHCG); experiment: Post-emergence herbicidal action, greenhouse pot test (also comparative test C)
In short: (§3)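 Green parts of one-leaf-stage plants are sprayed at 600 l/ha with formulated compound plus 0.5% additive, then kept under optimum greenhouse conditions for about 3 weeks. Damage is scored visually, where 100% means dead plants and 0% means no difference from controls.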

Setaria viridis (SETVI) = experiment: as above
In short: as §3

[7] = tested on: Matricaria inodora (MATIN); experiment: as above
In short: as §3

[8] = tested on: Alopecurus myosuroides (ALOMY); experiment: as above; details: rated visually after about 3 weeks vs untreated controls, 100% = plants have died
In short: as §3

COCCOCCOC(=O)COc1ccccc1Oc1cc(-n2c(=O)cc(C(F)(F)F)n(C)c2=O)c(F)cc1[N+](=O)[O-] [I.6-23]
90%: Post-emergence action against POLCO in % ([1]; dosage 1.25 g/ha) | Post-emergence action against LOLRI in % (Lolium rigidum (LOLRI)) | Post-emergence action at 20 g/ha against AVEFA in % (Avena fatua (AVEFA)) | Post-emergence action against PHBPU in % ([3]; dosage 5 g/ha) | Post-emergence action against ECHCG in % ([6]; dosage 5 g/ha) | Post-emergence action at 20 g/ha against ALOMY in % ([8]; 20 g/ha)
10%: Post-emergence action against ORYSA (crop plant compatibility) (Oryza sativa (ORYSA); 5 g/ha) | Post-emergence action against TRZAS (crop plant compatibility) ([5]; 1.25 g/ha) | Post-emergence action against ZEAMX (crop plant compatibility) (Zea mays (ZEAMX); 1.25 g/ha)
100%: Post-emergence action against POLCO in % ([1]; dosage 5 g/ha) | Post-emergence action against POLCO in % ([1]; dosage 20 g/ha) | Post-emergence action at 1.25 g/ha against AMARE in % ([2]; 1.25 g/ha) | Post-emergence action at 5 g/ha against AMARE in % ([2]; 5 g/ha) | Post-emergence action at 20 g/ha against AMARE in % ([2]; 20 g/ha) | Post-emergence action against VIOTR (Viola tricolor (VIOTR); 1.25 g/ha) | Post-emergence action against VIOTR (Viola tricolor (VIOTR); 5 g/ha) | Post-emergence action against VIOTR (Viola tricolor (VIOTR); 20 g/ha) | Post-emergence action against PHBPU in % ([3]; dosage 20 g/ha) | Post-emergence action against VERPE (Veronica persica (VERPE); 1.25 g/ha) | Post-emergence action against VERPE (Veronica persica (VERPE); 5 g/ha) | Post-emergence action against VERPE (Veronica persica (VERPE); 20 g/ha) | Post-emergence action at 1.25 g/ha against ABUTH in % ([4]; 1.25 g/ha) | Post-emergence action at 5 g/ha against ABUTH in % ([4]; 5 g/ha) | Post-emergence action at 20 g/ha against ABUTH in % ([4]; 20 g/ha) | Post-emergence action against ECHCG in % ([6]; dosage 20 g/ha) | Post-emergence action against SETVI (Setaria viridis (SETVI); 20 g/ha) | Post-emergence action against SETVI in % (Setaria viridis (SETVI); dosage 1.25 g/ha) | Post-emergence action against SETVI in % (Setaria viridis (SETVI); dosage 5 g/ha) | Post-emergence action against MATIN in % ([7]; dosage 5 g/ha) | Post-emergence action against MATIN in % ([7]; dosage 20 g/ha)
80%: Post-emergence action against PHBPU in % ([3]; dosage 1.25 g/ha) | Post-emergence action at 1.25 g/ha against ECHCG in % ([6]; 1.25 g/ha, rated visually after about 3 weeks vs untreated controls, 100% = plants have died) | Post-emergence action against MATIN in % ([7]; dosage 1.25 g/ha) | Post-emergence action at 5 g/ha against ALOMY in % ([8]; 5 g/ha)
0%: Post-emergence action against ORYSA (crop plant compatibility) (Oryza sativa (ORYSA); 1.25 g/ha)
20%: Post-emergence action against ORYSA in % (Oryza sativa (ORYSA); 20 g/ha, crop plant compatibility) | Post-emergence action against TRZAS (crop plant compatibility) ([5]; 5 g/ha) | Post-emergence action against TRZAS (crop plant compatibility) ([5]; 20 g/ha) | Post-emergence action against GLXMA in % (Glycine max (GLXMA)) | Post-emergence action against ZEAMX (crop plant compatibility) (Zea mays (ZEAMX); 5 g/ha)
